24 molecules from US9920040B2, “GPR40 agonists for the treatment of type II diabetes” (Janssen Pharmaceutica NV, priority 2015, dated 2018) can be followed below.

One assay concerns the target T1, rat GPR40 (Rattus norvegicus, UniProt Q8K3T4).
T1 construct: expressed in transfected cells
In words: GPR40 calcium flux assay, rat GPR40. It is filed as cell-based. The following applies: transfected HEK293 cells stably expressing rat GPR40; multiple values = repeated testing; read-out: rGPR40 Ca^2+ Assay EC50. How it is done:
(§1) Compounds were tested in a calcium flux assay using transfected HEK293 cells stably expressing either human GPR40 or rat GPR40. Human GPR40 expressing cells were cultured in DMEM-High Glucose media supplemented with 10% fetal bovine serum, 1×L-Glutamine, 1×Penicillin/Streptomycin and 500 μg/mL G418. Rat GPR40 expressing cells were cultured in DMEM-High Glucose media supplemented with 10% fetal bovine serum and 1 μg/mL puromycin. Cells were plated into poly-D-lysine coated 384-well plates and cultured overnight in a 37° C. humidified tissue culture incubator under 5% CO2/[…] atmosphere. On the day of the experiment, the culture media was replaced with assay buffer (HBSS, 20 mM HEPES, 0.1% BSA) and the cells incubated at 37° C. for 1 h. Calcium-sensitive fluorescent dye (Fluo 8 No-Wash Calcium Dye, ABD Bioquest) was then added and the cells incubated for another 30 min at 37° C. followed by 15 min at room temperature while protected from the light. The cell plate and a plate of diluted compounds of Formula (I) were loaded into a fluorescent plate reader that added compounds onto the cells while measuring the fluorescence intensity of each well. The plate reader recorded fluorescence intensity at 1 second intervals for 8 min and provided the data for analysis in an Excel format. EC50 values were calculated using Prism (GraphPad) software.

The next assay concerns the target T2, human GPR40 (Homo sapiens, UniProt O14842).
T2 construct: expressed in transfected cells
Nature of the assay: GPR40 calcium flux assay, human GPR40. In kind it is cell-based. As to conditions: transfected HEK293 cells stably expressing human GPR40; multiple values = repeated testing; read-out: hGPR40 Ca^2+ Assay EC50. On the procedure: as §1
In general terms: Calcium flux is commonly read through the fluorescence of an indicator in the cells.

The structures appear in SMILES notation. “And” between values parts separate entries of the source, which are not always exact repeats. Equal values may be shown once.

T2 sequence (O14842 whole entry): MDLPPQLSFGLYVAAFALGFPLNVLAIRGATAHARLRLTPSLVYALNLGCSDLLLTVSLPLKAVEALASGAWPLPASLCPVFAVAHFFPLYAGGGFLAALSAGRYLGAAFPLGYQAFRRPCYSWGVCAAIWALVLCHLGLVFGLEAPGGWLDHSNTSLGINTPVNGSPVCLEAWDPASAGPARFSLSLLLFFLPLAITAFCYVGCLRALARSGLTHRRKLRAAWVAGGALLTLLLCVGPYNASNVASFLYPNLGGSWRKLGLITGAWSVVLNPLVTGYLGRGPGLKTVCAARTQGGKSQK
T1 sequence (Q8K3T4 whole entry): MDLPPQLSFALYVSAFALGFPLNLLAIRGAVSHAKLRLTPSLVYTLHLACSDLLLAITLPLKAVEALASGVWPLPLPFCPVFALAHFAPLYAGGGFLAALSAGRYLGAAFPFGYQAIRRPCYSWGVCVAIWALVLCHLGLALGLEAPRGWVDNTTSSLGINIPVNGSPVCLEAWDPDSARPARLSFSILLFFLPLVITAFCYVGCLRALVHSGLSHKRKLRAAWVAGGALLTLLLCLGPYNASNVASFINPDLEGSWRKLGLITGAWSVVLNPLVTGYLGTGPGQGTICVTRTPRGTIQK

For the molecule `COc1cc(-c2onc(COc3cccc([C@@H](CC(=O)O)C4CC4)c3)c2OC2CC(C)(C)CC(C)(C)C2)c(F)cn1` [Cpd 2, (3S)-3-cyclopropyl-3-[3-[[5-(5-fluoro-2-methoxy-4-pyridyl)-4-(3,3,5,5-tetramethylcyclohexoxy)isoxazol-3-yl]methoxy]phenyl]propanoic acid], the EC50 on rat GPR40 was found to be 9 nM; on human GPR40 it was 5 nM.

For the molecule `COc1ccc(F)c(-c2onc(CCc3cccc(C(CC(=O)O)C4CC4)c3)c2C2CC2)c1` (centres unmarked) [Cpd 7, 3-cyclopropyl-3-[3-[2-[4-cyclopropyl-5-(2-fluoro-5-methoxy-phenyl)isoxazol-3-yl]ethyl]phenyl]propanoic acid], the half-maximal effective concentration (EC50) on rat GPR40 worked out at 69 nM; at human GPR40, 24 nM.

For the molecule `COc1ccc(F)c(-c2onc(COc3cccc([C@@H](CC(=O)O)C4CC4)c3)c2OC2CC(C)(C)C(C)(C)C2)c1` [Cpd 1, (3S)-3-cyclopropyl-3-[3-[[5-(2-fluoro-5-methoxy-phenyl)-4-(3,3,4,4-tetramethylcyclopentoxy)isoxazol-3-yl]methoxy]phenyl]propanoic acid], the EC50 on rat GPR40 came to 6 nM; on human GPR40 it was 3 nM.

For the molecule `COc1ccc(F)c(-c2onc(COc3cc(C(CC(=O)O)C4CC4)c(Cl)cn3)c2C2=CCCC2(C)C)c1` (centres unmarked) [Cpd 9, 3-[5-chloro-2-[[4-(5,5-dimethylcyclopenten-1-yl)-5-(2-fluoro-5-methoxy-phenyl)isoxazol-3-yl]methoxy]-4-pyridyl]-3-cyclopropyl-propanoic acid], the EC50 at rat GPR40 amounted to 138 nM; at human GPR40, 53 nM.

Take `COc1cc(-c2onc(COc3cccc([C@@H](CC(=O)O)C4CC4)c3)c2OCC2CC(C)(C)C2)c(F)cn1` [Cpd 8, (3S)-3-cyclopropyl-3-[3-[[4-[(3,3-dimethylcyclobutyl)methoxy]-5-(5-fluoro-2-methoxy-4-pyridyl)isoxazol-3-yl]methoxy]phenyl]propanoic acid]: the EC50 at rat GPR40 is 44 nM and 144 nM and 143 nM; on human GPR40, 113 nM and 103 nM and 27 nM.

`COc1ccc(-c2scc(COc3cccc([C@@H](CC(=O)O)C4CC4)c3)c2C2=CCCC2(C)C)c(F)c1` [Cpd 18, (3S)-3-cyclopropyl-3-[3-[[4-(5,5-dimethylcyclopenten-1-yl)-5-(2-fluoro-4-methoxy-phenyl)-3-thienyl]methoxy]phenyl]propanoic acid]: the EC50 at human GPR40 was 305 nM and 152 nM.

`COc1ccc(F)c(-c2onc(COc3cccc([C@@H](CC(=O)O)C4CC4)c3)c2CC(C)C)c1` [Cpd 35, (3S)-3-cyclopropyl-3-[3-[[5-(2-fluoro-5-methoxy-phenyl)-4-isobutyl-isoxazol-3-yl]methoxy]phenyl]propanoic acid]: at human GPR40, the EC50 was 8 nM and 6 nM.

On to `COc1ccc(F)c(-c2onc(COc3cccc([C@@H](CC(=O)O)C4CC4)c3)c2OC2CCCCC2)c1` [Cpd 46, (3S)-3-[3-[[4-(cyclohexoxy)-5-(2-fluoro-5-methoxy-phenyl)isoxazol-3-yl]methoxy]phenyl]-3-cyclopropyl-propanoic acid], for which, at human GPR40, the EC50 is 7 nM and 5 nM.

Turning to `CC1(C)CCC=C1c1c(COc2cccc([C@@H](CC(=O)O)C3CC3)c2)csc1-c1cccc2occc12` [Cpd 25, (3S)-3-[3-[[5-(benzofuran-4-yl)-4-(5,5-dimethylcyclopenten-1-yl)-3-thienyl]methoxy]phenyl]-3-cyclopropyl-propanoic acid], the EC50 at human GPR40 was 101 nM and 68 nM.

With `COc1ccc(F)c(-c2onc(COc3cccc([C@@H](CC(=O)O)C4CC4)c3)c2C=C(C)C)c1` [Cpd 36, (3S)-3-cyclopropyl-3-[3-[[5-(2-fluoro-5-methoxy-phenyl)-4-(2-methylprop-1-enyl)isoxazol-3-yl]methoxy]phenyl]propanoic acid], the EC50 on human GPR40 was 30 nM and 26 nM.

With `COc1cc(-c2scc(COc3cccc([C@@H](CC(=O)O)C4CC4)c3)c2C2=CCCC2(C)C)c(F)cn1` [Cpd 27, (3S)-3-cyclopropyl-3-[3-[[4-(5,5-dimethylcyclopenten-1-yl)-5-(5-fluoro-2-methoxy-4-pyridyl)-3-thienyl]methoxy]phenyl]propanoic acid], on human GPR40, the EC50 was 53 nM and 42 nM.

Take `COc1cc(-c2onc(COc3cccc([C@@H](CC(=O)O)C4CC4)c3)c2OC2CCCCC2)c(F)cn1` [Cpd 48, (3S)-3-[3-[[4-(cyclohexoxy)-5-(5-fluoro-2-methoxy-4-pyridyl)isoxazol-3-yl]methoxy]phenyl]-3-cyclopropyl-propanoic acid]: the 50% effective concentration (EC50) on human GPR40 is 24 nM and 21 nM.

Turning to `COc1ccc(F)c(-c2onc(COc3cccc([C@@H](CC(=O)O)C4CC4)c3)c2OC2CCCC2)c1` [Cpd 40, (3S)-3-[3-[[4-(cyclopentoxy)-5-(2-fluoro-5-methoxy-phenyl)isoxazol-3-yl]methoxy]phenyl]-3-cyclopropyl-propanoic acid], the EC50 at human GPR40 was 8 nM and 7 nM.

On to `COc1ccc(F)c(-c2onc(COc3cccc([C@@H](CC(=O)O)C4CC4)c3)c2OCC2C(C)(C)C2(C)C)c1` [Cpd 11, (3S)-3-cyclopropyl-3-[3-[[5-(2-fluoro-5-methoxy-phenyl)-4-[(2,2,3,3-tetramethylcyclopropyl)methoxy]isoxazol-3-yl]methoxy]phenyl]propanoic acid], for which the EC50 on human GPR40 stood at 58 nM.

As to `CC1(C)CCC=C1c1c(COc2cccc([C@@H](CC(=O)O)C3CC3)c2)csc1-c1ccccc1F` [Cpd 21, (3S)-3-cyclopropyl-3-[3-[[4-(5,5-dimethylcyclopenten-1-yl)-5-(2-fluorophenyl)-3-thienyl]methoxy]phenyl]propanoic acid], the EC50 on human GPR40 is 110 nM and 66 nM.

With `COc1ccccc1-c1scc(COc2cccc([C@@H](CC(=O)O)C3CC3)c2)c1C1=CCCC1(C)C` [Cpd 22, (3S)-3-cyclopropyl-3-[3-[[4-(5,5-dimethylcyclopenten-1-yl)-5-(2-methoxyphenyl)-3-thienyl]methoxy]phenyl]propanoic acid], the EC50 at human GPR40 was 47 nM and 41 nM.

`COc1cc(-c2onc(COc3cccc([C@@H](CC(=O)O)C4CC4)c3)c2OC2CC(C)(C)C(C)(C)C2)c(F)cn1` [Cpd 4, (3S)-3-cyclopropyl-3-[3-[[5-(5-fluoro-2-methoxy-4-pyridyl)-4-(3,3,4,4-tetramethylcyclopentoxy)isoxazol-3-yl]methoxy]phenyl]propanoic acid]: the EC50 on rat GPR40 came out at 10 nM; on human GPR40, 5 nM.

Regarding `COc1ccc(F)c(-c2onc(COc3cccc([C@@H](CC(=O)O)C4CC4)c3)c2-c2ccccc2)c1` [Cpd 34, (3S)-3-cyclopropyl-3-[3-[[5-(2-fluoro-5-methoxy-phenyl)-4-phenyl-isoxazol-3-yl]methoxy]phenyl]propanoic acid], at human GPR40, the EC50 is 168 nM and 140 nM.

For the molecule `COc1ccc(F)c(-c2onc(COc3cccc([C@@H](CC(=O)O)C4CC4)c3)c2OCC2CC(C)(C)C2)c1` [Cpd 5, (3S)-3-cyclopropyl-3-[3-[[4-[(3,3-dimethylcyclobutyl)methoxy]-5-(2-fluoro-5-methoxy-phenyl)isoxazol-3-yl]methoxy]phenyl]propanoic acid], the EC50 was 69 nM and 46 nM and 56 nM at rat GPR40; 37 nM and 35 nM and 6 nM at human GPR40.

Take `CCOc1c(COc2cccc([C@@H](CC(=O)O)C3CC3)c2)noc1-c1cc(OC)ccc1F` [Cpd 50, (3S)-3-cyclopropyl-3-[3-[[4-ethoxy-5-(2-fluoro-5-methoxy-phenyl)isoxazol-3-yl]methoxy]phenyl]propanoic acid]: the EC50 on human GPR40 was 110 nM and 81 nM.

`COc1ccc(F)c(-c2onc(COc3cccc([C@@H](CC(=O)O)C4CC4)c3)c2OC(C)C)c1` [Cpd 42, (3S)-3-cyclopropyl-3-[3-[[5-(2-fluoro-5-methoxy-phenyl)-4-isopropoxy-isoxazol-3-yl]methoxy]phenyl]propanoic acid]: the EC50 at human GPR40 is 19 nM and 15 nM.

For `COc1cncc(-c2scc(COc3cccc([C@@H](CC(=O)O)C4CC4)c3)c2C2=CCCC2(C)C)c1` [Cpd 28, (3S)-3-cyclopropyl-3-[3-[[4-(5,5-dimethylcyclopenten-1-yl)-5-(5-methoxy-3-pyridyl)-3-thienyl]methoxy]phenyl]propanoic acid], at human GPR40, the EC50 was 83 nM and 74 nM.

Consider `COc1cc(-c2scc(COc3cccc([C@@H](CC(=O)O)C4CC4)c3)c2C2=CCCC2(C)C)c2ccsc2c1` [Cpd 10, (3S)-3-cyclopropyl-3-[3-[[4-(5,5-dimethylcyclopenten-1-yl)-5-(6-methoxybenzothiophen-4-yl)-3-thienyl]methoxy]phenyl]propanoic acid], for which the EC50 at rat GPR40 was 91 nM and 89 nM; on human GPR40 it was 53 nM and 35 nM and 34 nM.

On to `CC1(C)CCC=C1c1c(COc2cccc([C@@H](CC(=O)O)C3CC3)c2)csc1-c1ccsc1` [Cpd 16, (3S)-3-cyclopropyl-3-[3-[[4-(5,5-dimethylcyclopenten-1-yl)-5-(3-thienyl)-3-thienyl]methoxy]phenyl]propanoic acid], for which the EC50 on human GPR40 was 87 nM and 65 nM.

The EC50 is the midpoint of the concentration-response curve.
